Molecular target: T1, human PPARγ (Homo sapiens, UniProt P37231)
T1 construct: 1.6 kb of fragment of the prepared plasmid pGEMT-hPPARg2 including human PPARγ gene; expressed in transfected cells; host or cells: CV-1 cells, transient transfection with pCI-hPPARg2, pCI-hRXRa and the reporter pGL3-PPRE3-TK
T1 sequence (P37231 1-505): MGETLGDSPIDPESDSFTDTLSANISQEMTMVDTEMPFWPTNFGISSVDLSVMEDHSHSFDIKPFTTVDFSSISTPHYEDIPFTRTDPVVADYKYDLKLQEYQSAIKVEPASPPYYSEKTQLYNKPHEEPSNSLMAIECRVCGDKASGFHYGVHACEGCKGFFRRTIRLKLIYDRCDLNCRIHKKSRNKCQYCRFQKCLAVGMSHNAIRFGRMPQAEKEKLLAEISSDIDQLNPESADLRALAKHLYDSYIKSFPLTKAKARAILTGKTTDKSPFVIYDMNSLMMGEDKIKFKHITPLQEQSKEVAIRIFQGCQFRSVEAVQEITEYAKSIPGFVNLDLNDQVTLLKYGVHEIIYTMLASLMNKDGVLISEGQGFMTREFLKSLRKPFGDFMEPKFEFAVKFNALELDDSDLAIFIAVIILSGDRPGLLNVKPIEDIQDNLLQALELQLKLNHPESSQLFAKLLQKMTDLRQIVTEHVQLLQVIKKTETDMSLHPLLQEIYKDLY
T1 sequence (P19793 1-462 partner): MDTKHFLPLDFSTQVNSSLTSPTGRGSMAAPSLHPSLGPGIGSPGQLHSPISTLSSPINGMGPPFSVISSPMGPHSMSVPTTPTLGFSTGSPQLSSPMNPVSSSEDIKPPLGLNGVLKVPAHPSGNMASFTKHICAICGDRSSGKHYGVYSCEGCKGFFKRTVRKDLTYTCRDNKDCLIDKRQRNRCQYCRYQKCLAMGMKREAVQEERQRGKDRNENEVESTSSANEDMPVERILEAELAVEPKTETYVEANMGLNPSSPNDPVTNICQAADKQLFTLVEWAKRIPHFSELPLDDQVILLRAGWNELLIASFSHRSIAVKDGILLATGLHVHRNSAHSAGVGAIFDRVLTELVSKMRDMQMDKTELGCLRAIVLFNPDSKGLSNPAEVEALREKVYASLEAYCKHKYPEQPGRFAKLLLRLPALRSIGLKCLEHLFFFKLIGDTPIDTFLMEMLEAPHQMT
Experiment: Human PPARγ antagonist assay (luciferase reporter in transfected CV-1 cells)
Type: cell-based
Settings: for IC50: CV-1 cells expressing human PPARγ and RXRα with reporter plasmid, pioglitazone 1 μM as stimulant, 24 hours, read-out: Human PPARγ antagonist activities, Inhibition IC50
Protocol: CV-1 cells (96 well plate), where human PPARγ and RXRα has expressed in the transient transfection of reporter plasmid (see reference 5a) were washed once with PBS (100 μL/well), and then supplemented with 100 μL/well […], as well as pioglitazone (not limited to pioglitazone shown as an example, but may be any PPARγ agonist) at a final concentration of 1 μM as a stimulant were added, and incubated in a 5% CO2 incubator at 37° C. for 24 hours. After removing the medium, the CV-1 cells were washed once with PBS (100 μL/well), and supplemented with 60 μL/well of 1× Passive Lysis Buffer (manufactured by Promega Corporation). The CV-1 cells were incubated at room temperature for 30 minutes, stirred, and then by using Dual-Luciferase Reporter Assay System (manufactured by Promega Corporation), luciferase activities of firefly and renilla were measured using 1420 ARVO Multilabel Counter (manufactured by Wallac Oy). Also, the same experiments as that described above were respectively carried out for the cases where only the above-mentioned stimulants (100 nM, 1 μM, 10 μM) were used, where only the above-mentioned test compounds were used, or where neither was used (nonsupplemented), and luciferase activities of firefly and renilla were measured. Values corrected by dividing the firefly luciferase activities by the renilla luciferase activities were calculated as specific activities and used for evaluations.
Human PPARγ2 antagonist activities of the test compounds were evaluated by using a percentage (inhibition) where the specific activity in case only […] was added is regarded as 0% and the specific activity in case the test compound and the stimulant were not added is regarded as 100%. Moreover, the concentration of the test compound indicating the inhibition rate of 50% was calculated as the IC50 value. Also, human PPARγ2 agonist activities of the test compounds were evaluated by using a percentage (activity) where the specific activity when nonsupplemented is regarded as 0% and the specific activity in case only 10 μM stimulant was added is regarded as 100%, from the specific activity in case only the test compound is used.
CV-1 cells were cultured in DMEM medium (manufactured by Invitrogen Corporation) including 10% fetal bovine serum (manufactured by Dainippon Pharmaceutical Co., Ltd.) in 225T-Flask (manufactured by Corning Costar). The cells were detached by 0.5 g/L trypsin-0.2 g/L EDTA (ethylene diamine tetra-acetic acid) (manufactured by Invitrogen Corporation), and then suspended in the DMEM medium including 10% fetal bovine serum to a cell concentration of 2×10^5 cells/mL. Thereafter, the cells were seeded into 96 well plate at 2×10^4 cells/0.1 mL/well, incubated in the 5% CO2 incubator at 37° C. overnight, and then the plasmids prepared by the above-mentioned reference 1a, reference 3a, and reference 4a were transfected into cells by using a lipofectamine reagent (manufactured by Invitrogen Corporation) according to the attached manual.
Namely, after CV-1 cells were cultured overnight, the cells were washed with PBS (100 μL/well). Thereafter the cells were incubated for 5 hours at 37° C./5% CO2 in the MEM medium (manufactured by Invitrogen Corporation) including 430 ng/mL of human PPARγ expression plasmid (pCI-hPPARg2) prepared by the reference 1a, 430 ng/mL of human RXRα expression plasmid (pCI-hRXRa) prepared by the reference 3a, and 140 ng/mL of the reporter plasmid (pGL3-PPRE3-TK) prepared by the reference 4a, 10 ng/mL of phRL-TK vector (manufactured by Promega Corporation) and 2 μL/mL of lipofectamine.

COc1cc(Cn2c3ccccc3c3c(OC(C(=O)O)c4ccccc4)cccc32)ccc1OCc1nc(-c2ccco2)oc1C (racemic) [Example 6, (±)-2-{9-[4-((2-(furan-2-yl)-5-methyl-oxazole-4-yl)methoxy)-3-methoxy-benzyl]-9H-carbazole-4-yloxy}-2-phenylacetic acid]
IC50: 905 nM

COc1cc(Cn2c3ccccc3c3c(OC(C(=O)O)C(C)C)cccc32)ccc1OCc1nc(-c2ccccc2)oc1C (racemic) [Example 10, (±)-2-{9-[3-methoxy-4-((5-methyl-2-phenyl-oxazole-4-yl)methoxy)-benzyl]-9H-carbazole-4-yloxy}-3-methyl-butyric acid]
IC50: 400 nM

CCCC(Oc1cccc2c1c1ccccc1n2Cc1ccc(OCc2nc(-c3ccccc3)oc2C)c(OC)c1)C(=O)O (racemic) [Example 11, (±)-2-{9-[3-methoxy-4-((5-methyl-2-phenyl-oxazole-4-yl)methoxy)-benzyl]-9H-carbazole-4-yloxy}valeric acid]
IC50: 281 nM

CCCCC(Oc1cccc2c1c1ccccc1n2Cc1ccc(OCc2nc(-c3ccccc3)oc2C)c(OC)c1)C(=O)O (racemic) [Example 17, (±)-2-{9-[3-methoxy-4-((5-methyl-2-phenyl-oxazole-4-yl)methoxy)-benzyl]-9H-carbazole-4-yloxy}caproic acid]
IC50: 320 nM

CCCCCC(Oc1cccc2c1c1ccccc1n2Cc1ccc(OCc2nc(-c3ccccc3)oc2C)c(OC)c1)C(=O)O (racemic) [Example 18, (±)-2-{9-[3-methoxy-4-((5-methyl-2-phenyl-oxazole-4-yl)methoxy)-benzyl]-9H-carbazole-4-yloxy}heptane acid]
IC50: 829 nM

CCCCCCC(Oc1cccc2c1c1ccccc1n2Cc1ccc(OCc2nc(-c3ccccc3)oc2C)c(OC)c1)C(=O)O (racemic) [Example 19, (±)-2-{9-[3-methoxy-4-((5-methyl-2-phenyl-oxazole-4-yl)methoxy)-benzyl]-9H-carbazole-4-yloxy}caprylic acid]
IC50: 882 nM

COc1cc(Cn2c3ccccc3c3c(OC(C(=O)O)c4ccccc4)cccc32)ccc1OCc1nc(-c2ccccc2)oc1C (racemic) [Example 26, (±)-2-{9-[3-methoxy-4-((5-methyl-2-phenyl-oxazole-4-yl)methoxy)-benzyl]-9H-carbazole-4-yloxy}-2-phenylacetic acid]
IC50: 546 nM

COc1cc(Cn2c3ccccc3c3c(OC(C(=O)O)c4ccccc4)cccc32)ccc1OCc1nc(-c2ccccc2)oc1C (racemic) [Example 36]
IC50: 596 nM

COc1cc(Cn2c3ccccc3c3c(OC(C(=O)O)c4ccccc4)cccc32)ccc1OCc1nc(-c2ccccc2)oc1C (single isomer, unassigned) [Example 50, sodium (+)-2-{9-[3-methoxy-4-((5-methyl-2-phenyl-oxazole-4-yl)methoxy)-benzyl]-9H-carbazole-4-yloxy}-2-phenylacetate]
IC50: 471 nM

COc1cc(Cn2c3ccccc3c3c(OC(C(=O)O)c4ccccc4)cccc32)ccc1OCc1nc(-c2ccccc2)oc1C (single isomer, unassigned) [Example 51, sodium (−)-2-{9-[3-methoxy-4-((5-methyl-2-phenyl-oxazole-4-yl)methoxy)-benzyl]-9H-carbazole-4-yloxy}-2-phenylacetate]
IC50: 2190 nM

COc1cc(Cn2c3ccccc3c3c(OCCC(C)C(=O)O)cccc32)ccc1OCc1nc(-c2ccccc2)oc1C (single isomer, unassigned) [Example 52, sodium (−)-4-{9-[3-methoxy-4-((5-methyl-2-phenyl-oxazole-4-yl)methoxy)-benzyl]-9H-carbazole-4-yloxy}-2-methyl-butyrate]
IC50: 173 nM

COc1cc(Cn2c3ccccc3c3c(OCCC(C)C(=O)O)cccc32)ccc1OCc1nc(-c2ccccc2)oc1C (single isomer, unassigned) [Example 53, sodium (+)-4-{9-[3-methoxy-4-((5-methyl-2-phenyl-oxazole-4-yl)methoxy)-benzyl]-9H-carbazole-4-yloxy}-2-methyl-butyrate]
IC50: 382 nM

COc1cc(Cn2c3ccccc3c3c(OCC(=O)O)cccc32)ccc1OCc1nc(-c2ccccc2)oc1C [Example 1, 2-{9-[3-methoxy-4-((5-methyl-2-phenyl-oxazole-4-yl)methoxy)-benzyl]-9H-carbazole-4-yloxy}acetic acid]
IC50: 3150 nM

COc1cc(Cn2c3ccccc3c3c(OCC(=O)O)cccc32)ccc1OCc1nc(-c2ccco2)oc1C [Example 2, 2-{9-[4-((2-(furan-2-yl)-5-methyl-oxazole-4-yl)methoxy)-3-methoxy-benzyl]-9H-carbazole-4-yloxy}acetic acid]
inhibition at 10 µM (at 10 μM test compound, CV-1 cells expressing human PPARγ and RXRα, pioglitazone as stimulant, read-out: Human PPARγ antagonist activities, Inhibition % at 10 μM): 47.4%

COc1cc(Cn2c3ccccc3c3c(OCCCC(=O)O)cccc32)ccc1OCc1nc(-c2ccccc2)oc1C [Example 12, 4-{9-[3-methoxy-4-((5-methyl-2-phenyl-oxazole-4-yl)methoxy)-benzyl]-9H-carbazole-4-yloxy}butyric acid]
IC50: 725 nM

COc1cc(Cn2c3ccccc3c3c(OCCCCC(=O)O)cccc32)ccc1OCc1nc(-c2ccccc2)oc1C [Example 20, 5-{9-[3-methoxy-4-((5-methyl-2-phenyl-oxazole-4-yl)methoxy)-benzyl]-9H-carbazole-4-yloxy}valeric acid]
IC50: 1600 nM

COc1cc(Cn2c3ccccc3c3c(OCCCCCC(=O)O)cccc32)ccc1OCc1nc(-c2ccccc2)oc1C [Example 21, 6-{9-[3-methoxy-4-((5-methyl-2-phenyl-oxazole-4-yl)methoxy)-benzyl]-9H-carbazole-4-yloxy}caproic acid]
IC50: 5060 nM

COc1cc(Cn2c3ccccc3c3c(OCC(=O)O)cccc32)ccc1OCc1nc(-c2ccccc2)oc1C [Example 29]
IC50: 2460 nM

COc1cc(Cn2c3ccccc3c3c(OCCCC(=O)O)cccc32)ccc1OCc1nc(-c2ccccc2)oc1C [Example 33]
IC50: 1380 nM

COc1cc(Cn2c3ccccc3c3c(OCC(C)(C)C(=O)O)cccc32)ccc1OCc1nc(-c2ccncc2)oc1C [Example 35]
IC50: 509 nM

Source: US8329913B2, “Carbazole derivative, solvate thereof, or pharmaceutically acceptable salt thereof” (Zeria Pharmaceutical Co., Ltd., priority 2004, dated 2012)
